Assay results reported in US11261170B2, “Aromatic compound, pharmaceutical composition and use thereof” (Sichuan Kelun-Biotech Biopharmaceutical Co., Ltd., priority 2017, dated 2022).

Tests used:
[1] = target: PPARα (Homo sapiens (Human), UniProt Q07869); assay: Activation of transient transfected PPAR α in HEK293 cells (GAL4-hPPAR α luciferase assay); type: cell-based; conditions: HEK293 transfected with GAL4-hPPAR α, 24 h incubation
Description: Test example 1: Experiment of the compounds on activation of transient transfected PPAR α in HEK293 cells
Plasmid: pcDNA3.1(+)-GAL4-hPPAR α, customized by Nanjing Kebai Biotechnology Co., Ltd.
(§1) Liposome: PGL4.35, customized by Nanjing Kebai Biotechnology Co., Ltd.
(§2) Cell: human embryonic kidney cells HEK293, purchased from ATCC.
(§3) Transfection reagent: Lipofectamine Reagent 3000 purchased from Invitrogen.
(§4) Assay kit: Bright Glo™ Luciferase Assay System purchased from Promega.
(§5) HEK293 cells were incubated in DMEM medium containing 10% of fetal bovine serum at 37° C. in the presence of 5% of CO2. 3×10^5/ml cells were plated in each well of the 6-well plate. When the cell convergence degree reached 50%-80%, 5 μg of liposome PGL4.35 and 5 μg of expression plasmid pcDNA3.1(+)-GAL4-hPPAR α were added to transfect the cells for 24 h and then the cells were collected. The transfected cells were plated in the 96-well plate and the compounds of the application in different concentrations were added, incubated for 24 h, and Bright Glo™ Luciferase Assay System reagent was added for luciferase assay.

[2] = target: hERG potassium ion channel (Homo sapiens (Human), UniProt Q12809); assay: Predictor hERG fluorescence polarization; type: binding
Chain of hERG potassium ion channel (Q12809 whole entry): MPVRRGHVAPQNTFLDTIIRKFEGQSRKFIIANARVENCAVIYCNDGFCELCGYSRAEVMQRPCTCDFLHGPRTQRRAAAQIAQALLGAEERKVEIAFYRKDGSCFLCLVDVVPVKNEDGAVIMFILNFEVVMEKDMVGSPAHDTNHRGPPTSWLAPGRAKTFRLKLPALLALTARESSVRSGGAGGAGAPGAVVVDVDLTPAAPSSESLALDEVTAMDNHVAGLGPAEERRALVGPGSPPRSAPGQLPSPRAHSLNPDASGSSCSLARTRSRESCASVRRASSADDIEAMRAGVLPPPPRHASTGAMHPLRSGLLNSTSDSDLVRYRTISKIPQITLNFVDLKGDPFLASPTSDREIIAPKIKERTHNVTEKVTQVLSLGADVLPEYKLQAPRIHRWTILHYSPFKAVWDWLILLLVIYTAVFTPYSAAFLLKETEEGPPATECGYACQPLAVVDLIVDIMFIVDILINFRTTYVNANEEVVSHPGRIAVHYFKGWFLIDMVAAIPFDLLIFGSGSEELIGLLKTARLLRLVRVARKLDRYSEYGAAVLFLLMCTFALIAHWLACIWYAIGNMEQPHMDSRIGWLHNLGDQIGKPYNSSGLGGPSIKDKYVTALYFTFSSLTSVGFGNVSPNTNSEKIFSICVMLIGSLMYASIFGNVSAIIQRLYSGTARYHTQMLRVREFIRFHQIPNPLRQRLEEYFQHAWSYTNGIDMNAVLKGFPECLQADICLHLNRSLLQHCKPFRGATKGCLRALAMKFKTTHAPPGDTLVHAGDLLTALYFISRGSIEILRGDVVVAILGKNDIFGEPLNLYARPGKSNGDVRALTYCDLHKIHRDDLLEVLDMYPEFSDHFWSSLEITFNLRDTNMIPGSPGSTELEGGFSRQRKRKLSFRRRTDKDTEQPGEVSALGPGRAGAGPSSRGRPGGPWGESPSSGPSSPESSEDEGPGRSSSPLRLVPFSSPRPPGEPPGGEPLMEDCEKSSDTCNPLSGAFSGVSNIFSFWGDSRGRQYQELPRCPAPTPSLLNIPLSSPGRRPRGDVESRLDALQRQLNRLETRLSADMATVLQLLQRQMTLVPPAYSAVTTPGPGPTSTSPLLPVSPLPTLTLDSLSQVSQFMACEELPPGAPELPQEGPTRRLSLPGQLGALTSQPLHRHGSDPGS
Description: Test Example 5: In Vitro Safety Test
The effect of the compound on hERG potassium ion channel was tested by Predictor™ hERG fluorescence polarization.

[3] = Cytotoxicity test on HEK293 cells (CellTiter Glo); type: cell-based; conditions: human, incubated for 3 days
Description: (§6) Test Example 4: Cytotoxicity Test of Compound on HepG2 & Hek293 Cells
(§7) Cells: human hepatocyte HepG2, purchased from ATCC; Human embryonic kidney cells HEK293: purchased from ATCC;
(§8) Assay reagent: CellTiter Glo® Luminescent Cell Viability Assay, purchased from Promega.
(§9) HepG2 and HEK293 cells were incubated in DMEM/F12 medium containing 10% of fetal bovine serum respectively. A proper amount of cells were plated into a 96-well plate, the plate was placed in an incubator overnight, and the culture medium was removed, and replaced with a complete culture medium containing the compound of the application, and incubated for 3 days. On day 4, an assay reagent CellTiter Glo was added to each well, and the relative luminous unit (RLU) of each well was determined by chemiluminescence. CC50 values of the compound of the application to HepG2 and HEK293 cells were calculated by GraphPad software, and the results were shown in Table 3.

[4] = Cytotoxicity test on HepG2 cells (CellTiter Glo); type: cell-based; conditions: human, incubated for 3 days
Description: as §6, §7, §8, §9

[5] = target: PPARδ (Homo sapiens (Human), UniProt Q03181); assay: Activation of transient transfected PPAR δ in HEK293 cells (GAL4-hPPAR δ luciferase assay); type: cell-based; conditions: HEK293 transfected with GAL4-hPPAR δ, 24 h incubation
Chain of PPARδ (Q03181 whole entry, looked up, the tested form may be a part): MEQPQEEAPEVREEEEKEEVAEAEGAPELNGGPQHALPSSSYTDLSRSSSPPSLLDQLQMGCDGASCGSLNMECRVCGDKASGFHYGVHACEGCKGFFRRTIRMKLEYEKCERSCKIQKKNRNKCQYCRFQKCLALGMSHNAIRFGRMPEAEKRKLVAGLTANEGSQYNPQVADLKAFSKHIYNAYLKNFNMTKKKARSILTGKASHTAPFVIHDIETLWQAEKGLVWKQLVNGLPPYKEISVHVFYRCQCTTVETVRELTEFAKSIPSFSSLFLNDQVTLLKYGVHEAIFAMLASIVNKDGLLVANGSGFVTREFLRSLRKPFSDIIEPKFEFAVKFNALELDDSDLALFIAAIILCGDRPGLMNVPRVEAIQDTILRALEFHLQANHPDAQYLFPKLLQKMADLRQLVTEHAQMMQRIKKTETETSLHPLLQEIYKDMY
Description: Test Example 2: Experiment of the Compounds on Activation of Transient Transfected PPAR δ in HEK293 Cells
Plasmid: pcDNA3.1(+)-GAL4-hPPAR δ, customized by Nanjing Kebai Biotechnology Co., Ltd.
as §1, §2, §3, §4
as §5, with “δ” for “α”, “Then, the” for “The”, “reagent” for “reagent was added”, “assay was added.” for “assay.”

[6] = system: MCD model of non-alcoholic steatohepatitis; assay: In vivo efficacy study in the MCD model of non-alcoholic steatohepatitis; design: species or system C57 Mice; conditions: MCD diet mice
Description: Test Example 6: In Vivo Efficacy Study of Compound in the MCD Model of Non-Alcoholic Steatohepatitis In this example, comparative test between compound GFT505 from WO2018133705A1 and compounds of the invention was conducted, so as to show the advantages of compounds of the invention. C57 Mice at 8-10 weeks of age (purchased from Vital River Laboratories) were body-weight matched and randomly divided into groups of normal, model, control and test. Mice in normal group were fed with standard chow for 9 weeks. Mice in model group, control group and test group were fed with MCD diet (Methionine-Choline Deficient Diet, Research Diets) for 9 weeks to induce NASH Model. During weeks 5-9 of the 9-week course of MCD diet, the control group and the test group were treated with GFT505 and TM4 of the invention, respectively, and the normal group and model group were treated with 0.5% MC. The dosage regimen was specified in table 5. [table] Animals were dissected after administration on day 35, livers were collected for H&E staining (hematoxylin-eosin staining) and sirius red staining. And then NAFLD activity score, including liver steatosis score, inflammation score and ballooning score, and liver fibrosis score were conducted.

[7] = 1 mg/kg intragastric once every day for 35 days
[8] = 1 mg/kg, 35 days, result in words

Chain of PPARα (Q07869 whole entry, looked up, the tested form may be a part): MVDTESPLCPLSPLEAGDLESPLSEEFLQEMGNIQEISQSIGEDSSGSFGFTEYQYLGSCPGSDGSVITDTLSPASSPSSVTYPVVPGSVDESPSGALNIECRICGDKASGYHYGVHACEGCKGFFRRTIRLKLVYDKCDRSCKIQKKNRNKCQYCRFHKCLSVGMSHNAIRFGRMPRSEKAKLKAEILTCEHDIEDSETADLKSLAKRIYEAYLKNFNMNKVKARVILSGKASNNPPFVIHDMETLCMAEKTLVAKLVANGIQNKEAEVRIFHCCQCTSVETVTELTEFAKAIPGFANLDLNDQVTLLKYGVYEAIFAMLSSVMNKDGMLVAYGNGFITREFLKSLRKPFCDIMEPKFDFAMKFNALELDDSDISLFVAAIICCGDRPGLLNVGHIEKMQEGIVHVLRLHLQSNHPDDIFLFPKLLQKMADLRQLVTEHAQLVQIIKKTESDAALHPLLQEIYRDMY

EC50 [1]	SMILES	IC50 [2]	CC50 at 3 days [3]	CC50 at 3 days [4]	EC50 [5]	further results
460 nM	COc1ccc2nc(Cl)c(C(=O)/C=C/c3cc(C)c(OC(C)(C)C(=O)O)c(C)c3)cc2c1 [Example 20, (E)-2-(4-(3-(2-chloro-6-methoxy-quinolin-3-yl)-3-oxo-1-propen-1-yl)-2,6-dimethylphenoxy)-2-methylpropionic acid]					
692 nM	Cc1cc(/C=C/C(=O)c2cc3ccccc3nc2C(F)(F)F)cc(C)c1OC(C)(C)C(=O)O [Example 8, (E)-2-(4-(3-(2-trifluoromethylquinolin-3-yl)-3-oxo-1-propen-1-yl)-2,6-dimethylphenoxy)-2-methylpropionic acid]	> 10000 nM	> 10000 nM	> 10000 nM		
8.62 nM	COc1ccc2cc(C(=O)/C=C/c3cc(C)c(OC(C)(C)C(=O)O)c(C)c3)c(Cl)nc2c1 [Example 18, (E)-2-(4-(3-(2-chloro-7-methoxy-quinolin-3-yl)-3-oxo-1-propen-1-yl)-2,6-dimethylphenoxy)-2-methylpropionic acid]	> 10000 nM			810 nM	
1.33 nM	COc1ccc2cc(C(=O)/C=C/c3cc(C)c(OC(C)(C)C(=O)O)c(C)c3)c(OC)nc2c1 [Example 19, (E)-2-(4-(3-(2,7-dimethoxy-quinolin-3-yl)-3-oxo-1-propen-1-yl)-2,6-dimethylphenoxy)-2-methylpropionic acid]	> 10000 nM			796 nM	
	Cc1cc(/C=C/C(=O)c2cc3ccccc3nc2N(C)C)cc(C)c1OC(C)(C)C(=O)O [Example 9, (E)-2-(4-(3-(2-dimethylaminoquinolin-3-yl)-3-oxo-1-propen-1-yl)-2,6-dimethylphenoxy)-2-methylpropionic acid]	> 10000 nM				
1210 nM	Cc1cc(/C=C/C(=O)c2cc3ccccc3s2)cc(C)c1OC(C)(C)C(=O)O [Example 2, (E)-2-(4-(3-(benzo [b]thien-2-yl)-3-oxo-1-propen-1-yl)-2,6-dimethylphenoxy)-2-methylpropionic acid]	8240 nM	~8140 nM	~7270 nM	6130 nM	
	CSc1ccc(C(=O)/C=C/c2cc(C)c(OC(C)(C)C(=O)O)c(C)c2)cc1 [GFT505, reference compound]					Liver fibrosis score (Mean ± SD) [6, 7]: 1.22 ± 0.44; NAFLD activity score (Mean ± SD) [6, 7]: 3.33 ± 0.87; Reduction of NAFLD activity score compared with model group [6, 8]: not statistically significant; Reduction of liver fibrosis score compared with model group [6, 8]: not statistically significant
1930 nM	Cc1cc(/C=C/C(=O)c2cnc3ccccc3c2)cc(C)c1OC(C)(C)C(=O)O [Example 3, (E)-2-(4-(3-(quinolin-3-yl)-3-oxo-1-propen-1-yl)-2,6-dimethylphenoxy)-2-methylpropionic acid]	> 10000 nM				
5.4 nM	COc1ccc2nc(OC)c(C(=O)/C=C/c3cc(C)c(OC(C)(C)C(=O)O)c(C)c3)cc2c1 [Example 21, (E)-2-(4-(3-(2,6-dimethoxy-quinolin-3-yl)-3-oxo-1-propen-1-yl)-2,6-dimethylphenoxy)-2-methylpropionic acid]	> 10000 nM			675 nM	

SMILES	EC50 [1]	IC50 [2]	CC50 at 3 days [3]	CC50 at 3 days [4]	EC50 [5]	further results
Cc1cc(/C=C/C(=O)c2cc3ccccc3nc2C)cc(C)c1OC(C)(C)C(=O)O [Example 7, (E)-2-(4-(3-(2-methylquinolin-3-yl)-3-oxo-1-propen-1-yl)-2,6-dimethylphenoxy)-2-methylpropionic acid]	752 nM		> 10000 nM	> 10000 nM		
Cc1cc(/C=C/C(=O)c2cc3ccccc3nc2N2CCCC2)cc(C)c1OC(C)(C)C(=O)O [Example 10, (E)-2-(4-(3-(2-(1-pyrrolidinyl)quinolin-3-yl)-3-oxo-1-propen-1-yl)-2,6-dimethylphenoxy)-2-methylpropionic acid]	77 nM	> 10000 nM			2510 nM	
Cc1cc(/C=C/C(=O)c2cc3ccccc3nc2Cl)cc(C)c1OC(C)(C)C(=O)O [Example 4, (E)-2-(4-(3-(2-chloroquinolin-3-yl)-3-oxo-1-propen-1-yl)-2,6-dimethylphenoxy)-2-methyl propionic acid]	278 nM	> 10000 nM	13600 nM	11300 nM	3440 nM	
CSc1nc2ccccc2cc1C(=O)/C=C/c1cc(C)c(OC(C)(C)C(=O)O)c(C)c1 [Example 17, (E)-2-(4-(3-(2-methylthioquinolin-3-yl)-3-oxo-1-propen-1-yl)-2,6-dimethylphenoxy)-2-methylpropionic acid]	123 nM	> 10000 nM				
COCCOc1nc2ccccc2cc1C(=O)/C=C/c1cc(C)c(OC(C)(C)C(=O)O)c(C)c1 [Example 6, (E)-2-(4-(3-(2-(2-methoxyethoxy)quinolin-3-yl)-3-oxo-1-propen-1-yl)-2,6-dimethylphenoxy)-2-methylpropionic acid]	52.8 nM	> 10000 nM	> 10000 nM	> 10000 nM	374 nM	
Cc1cc(/C=C/C(=O)c2cc3ccccc3nc2N2CCOCC2)cc(C)c1OC(C)(C)C(=O)O [Example 11, (E)-2-(4-(3-(2-(morpholin-4-yl)quinolin-3-yl)-3-oxo-1-propen-1-yl)-2,6-dimethylphenoxy)-2-methylpropionic acid]	585 nM				4430 nM	
